Data published in publication PMC5218480 (PLoS ONE, 2017).

System: MV-4-11 cells
Assay: Gene expression microarray analysis (Affymetrix PrimeView) and GSEA
Type: cell-based, human
Parameters: RFU PODN (11730768_x_at) / Fold change /veh PODN (11730768_x_at) / RFU LINC00158 (11744669_a_at) / Fold change /veh LINC00158 (11744669_a_at) / RFU DUSP10 (11751237_a_at) / Fold change /veh DUSP10 (11751237_a_at) / RFU ID3 (11757404_x_at) / Fold change /veh ID3 (11757404_x_at) / RFU PLEKHG5 (11737974_s_at) / Fold change /veh PLEKHG5 (11737974_s_at) / RFU LRRC4B (11730491_at) / Fold change /veh LRRC4B (11730491_at) / RFU GIMAP4 (11747438_a_at) / Fold change /veh GIMAP4 (11747438_a_at) / RFU KRT8 (11758183_x_at) / Fold change /veh KRT8 (11758183_x_at) / RFU CNN1 (11734310_a_at) / Fold change /veh CNN1 (11734310_a_at) / RFU VPS37D (11726825_at) / Fold change /veh VPS37D (11726825_at) / RFU C10orf10 (11716522_x_at) / Fold change /veh C10orf10 (11716522_x_at) / RFU KIR2DL2 /// KIR2DL4 /// KIR2DL5A /// KIR2DL5B /// KIR2DS1 /// KIR2DS2 /// KIR2DS3 /// KIR2DS4 /// KIR3DL3 /// KIR3DL3 /// KIR3DS1 (11738374_at) / Fold change /veh KIR2DL2 /// KIR2DL4 /// KIR2DL5A /// KIR2DL5B /// KIR2DS1 /// KIR2DS2 /// KIR2DS3 /// KIR2DS4 /// KIR3DL3 /// KIR3DL3 /// KIR3DS1 (11738374_at) / RFU C1QL1 (11718748_at) / Fold change /veh C1QL1 (11718748_at) / RFU TMPRSS4 (11747572_a_at) / Fold change /veh TMPRSS4 (11747572_a_at) / RFU HAMP (11756126_x_at) / Fold change /veh HAMP (11756126_x_at) / RFU RNFT2 (11725882_a_at) / Fold change /veh RNFT2 (11725882_a_at) / RFU NR4A2 (11747474_a_at) / Fold change /veh NR4A2 (11747474_a_at) / RFU ABCC12 (11746883_a_at) / Fold change /veh ABCC12 (11746883_a_at) / RFU TMEM136 (11760407_x_at) / Fold change /veh TMEM136 (11760407_x_at) / RFU CLDN22 /// WWC2 (11732394_at) / Fold change /veh CLDN22 /// WWC2 (11732394_at) / RFU HLA-DPB1 (11760878_x_at) / Fold change /veh HLA-DPB1 (11760878_x_at) / RFU SPINT1 (11716480_a_at) / Fold change /veh SPINT1 (11716480_a_at) / RFU GAP43 (11754022_s_at) / Fold change /veh GAP43 (11754022_s_at) / RFU A4GNT (11735810_at) / Fold change /veh A4GNT (11735810_at) / RFU PRB3 (11715151_x_at) / Fold change /veh PRB3 (11715151_x_at) / RFU TUBB4B (11761932_at) / Fold change /veh TUBB4B (11761932_at) / RFU CAPN14 (11732068_a_at) / Fold change /veh CAPN14 (11732068_a_at) / RFU TMCC2 (11721928_a_at) / Fold change /veh TMCC2 (11721928_a_at) / RFU IRGQ (11745062_a_at) / Fold change /veh IRGQ (11745062_a_at) / RFU FAM174B (11720279_a_at) / Fold change /veh FAM174B (11720279_a_at) / RFU TMPRSS4 (11748680_a_at) / Fold change /veh TMPRSS4 (11748680_a_at) / RFU FAM212B (11763350_a_at) / Fold change /veh FAM212B (11763350_a_at) / RFU PLEKHG5 (11743358_a_at) / Fold change /veh PLEKHG5 (11743358_a_at) / RFU ZSCAN30 (11745921_a_at) / Fold change /veh ZSCAN30 (11745921_a_at) / RFU CMKLR1 (11741424_a_at) / Fold change /veh CMKLR1 (11741424_a_at) / RFU LOC101060620 /// MAPK8IP1 (11723275_at) / Fold change /veh LOC101060620 /// MAPK8IP1 (11723275_at) / RFU SPTSSB (11747773_x_at) / Fold change /veh SPTSSB (11747773_x_at) / RFU PRSS12 (11739890_at) / Fold change /veh PRSS12 (11739890_at) / RFU BIN1 (11741810_x_at) / Fold change /veh BIN1 (11741810_x_at) / RFU WNT11 (11732464_a_at) / Fold change /veh WNT11 (11732464_a_at) / RFU C10orf10 (11716521_a_at) / Fold change /veh C10orf10 (11716521_a_at) / RFU C5orf56 (11738089_at) / Fold change /veh C5orf56 (11738089_at) / RFU CYB561 (11721691_x_at) / Fold change /veh CYB561 (11721691_x_at) / RFU ANKRD19P (11752326_a_at) / Fold change /veh ANKRD19P (11752326_a_at) / RFU OR2T12 /// OR2T33 /// OR2T8 (11738714_s_at) / Fold change /veh OR2T12 /// OR2T33 /// OR2T8 (11738714_s_at) / RFU VCAN (11748164_a_at) / Fold change /veh VCAN (11748164_a_at) / RFU JSRP1 (11732532_at) / Fold change /veh JSRP1 (11732532_at) / RFU KRTAP10-11 (11738290_x_at) / Fold change /veh KRTAP10-11 (11738290_x_at) / RFU MYO3A (11730013_a_at) / Fold change /veh MYO3A (11730013_a_at) / RFU EBF3 (11725865_a_at) / Fold change /veh EBF3 (11725865_a_at) / RFU CAMK2N1 (11719241_x_at) / Fold change /veh CAMK2N1 (11719241_x_at) / RFU C5orf56 (11738088_a_at) / Fold change /veh C5orf56 (11738088_a_at) / RFU OLFML3 (11715873_a_at) / Fold change /veh OLFML3 (11715873_a_at) / RFU LOC100653217 /// NTM (11731650_a_at) / Fold change /veh LOC100653217 /// NTM (11731650_a_at) / RFU MAPK11 (11762145_a_at) / Fold change /veh MAPK11 (11762145_a_at) / RFU FIZ1 (11724087_x_at) / Fold change /veh FIZ1 (11724087_x_at) / RFU OASL (11726364_x_at) / Fold change /veh OASL (11726364_x_at) / RFU SOX15 (11748057_x_at) / Fold change /veh SOX15 (11748057_x_at) / RFU CD79A (11719716_a_at) / Fold change /veh CD79A (11719716_a_at) / RFU HIST1H1D (11736915_at) / Fold change /veh HIST1H1D (11736915_at) / RFU CASKIN2 (11723855_a_at) / Fold change /veh CASKIN2 (11723855_a_at) / RFU LOC730098 (11760151_x_at) / Fold change /veh LOC730098 (11760151_x_at) / RFU OR4N2 (11742367_at) / Fold change /veh OR4N2 (11742367_at) / RFU PRRT2 (11749266_a_at) / Fold change /veh PRRT2 (11749266_a_at) / RFU SNX32 (11753110_a_at) / Fold change /veh SNX32 (11753110_a_at) / RFU CDHR5 (11726645_a_at) / Fold change /veh CDHR5 (11726645_a_at) / RFU RCAN1 (11760418_a_at) / Fold change /veh RCAN1 (11760418_a_at) / RFU FAM167A (11723789_a_at) / Fold change /veh FAM167A (11723789_a_at) / RFU FAM26E (11764081_at) / Fold change /veh FAM26E (11764081_at) / RFU ISYNA1 (11749810_s_at) / Fold change /veh ISYNA1 (11749810_s_at) / RFU ACY1 (11761880_at) / Fold change /veh ACY1 (11761880_at) / RFU 11764098_at / Fold change /veh 11764098_at / RFU SAMD14 (11745864_x_at) / Fold change /veh SAMD14 (11745864_x_at) / RFU NPB (11741838_a_at) / Fold change /veh NPB (11741838_a_at) / RFU TMPRSS6 (11731388_a_at) / Fold change /veh TMPRSS6 (11731388_a_at) / RFU KRTAP10-2 (11738614_at) / Fold change /veh KRTAP10-2 (11738614_at) / RFU ARHGAP8 /// PRR5-ARHGAP8 (11727945_x_at) / Fold change /veh ARHGAP8 /// PRR5-ARHGAP8 (11727945_x_at) / RFU KRTAP5-7 /// NADSYN1 (11734609_at) / Fold change /veh KRTAP5-7 /// NADSYN1 (11734609_at) / RFU RASL12 (11751679_a_at) / Fold change /veh RASL12 (11751679_a_at) / RFU CDKN2B (11736163_a_at) / Fold change /veh CDKN2B (11736163_a_at) / RFU PRF1 (11729649_at) / Fold change /veh PRF1 (11729649_at) / RFU, ZNF638 /// ZNF638-IT1 / Fold change vs veh, ZNF638 /// ZNF638-IT1 / RFU, PANK3 / Fold change vs veh, PANK3 / RFU, SH3YL1 / Fold change vs veh, SH3YL1 / RFU, ZEB2 / Fold change vs veh, ZEB2 / RFU, NRIP1 / Fold change vs veh, NRIP1 / RFU, PTTG1IP / Fold change vs veh, PTTG1IP / RFU, CAPN2 / Fold change vs veh, CAPN2 / RFU, MED14 / Fold change vs veh, MED14 / RFU, SNORA58 / Fold change vs veh, SNORA58 / RFU, C1orf63 / Fold change vs veh, C1orf63 / RFU, LRRFIP1 / Fold change vs veh, LRRFIP1 / RFU, NDUFAF7 / Fold change vs veh, NDUFAF7 / RFU, SLC12A2 / Fold change vs veh, SLC12A2 / RFU, IBTK / Fold change vs veh, IBTK / RFU, ESF1 / Fold change vs veh, ESF1 / Fold change vs veh, TMEM50B / RFU, TAOK1 / Fold change vs veh, TAOK1 / RFU, ACBD3 / Fold change vs veh, ACBD3 / RFU, TMA16 / Fold change vs veh, TMA16 / RFU, RWDD3 / Fold change vs veh, RWDD3 / RFU, BCAT1 / Fold change vs veh, BCAT1 / RFU, EDEM3 / Fold change vs veh, EDEM3 / RFU, TMEM33 / Fold change vs veh, TMEM33 / RFU, WDR75 / Fold change vs veh, WDR75 / RFU, AHCTF1 / Fold change vs veh, AHCTF1 / RFU, TFRC / Fold change vs veh, TFRC / RFU, ZDHHC17 / Fold change vs veh, ZDHHC17 / RFU, NOM1 / Fold change vs veh, NOM1 / RFU, ARL8B / Fold change vs veh, ARL8B / RFU, ZBTB11 / Fold change vs veh, ZBTB11 / RFU, TAMM41 / Fold change vs veh, TAMM41 / RFU, KIAA1704 /// LOC100996395 / Fold change vs veh, KIAA1704 /// LOC100996395 / RFU, ING1 / Fold change vs veh, ING1 / RFU, TRMT61B / Fold change vs veh, TRMT61B / RFU, FUBP3 / Fold change vs veh, FUBP3 / RFU, TP53 / Fold change vs veh, TP53 / RFU, TNKS2 / Fold change vs veh, TNKS2 / RFU, ZFP14 / Fold change vs veh, ZFP14 / RFU, ACTR2 / Fold change vs veh, ACTR2 / RFU, PPP3R1 / Fold change vs veh, PPP3R1 / RFU, PIK3R1 / Fold change vs veh, PIK3R1 / RFU, HNRNPA1 / Fold change vs veh, HNRNPA1 / RFU, RNF170 / Fold change vs veh, RNF170 / RFU, ZNF28 / Fold change vs veh, ZNF28 / RFU, RNGTT / Fold change vs veh, RNGTT / RFU, OGT / Fold change vs veh, OGT / RFU, BRD1 / Fold change vs veh, BRD1 / RFU, MARS / Fold change vs veh, MARS / RFU, ZNF655 / Fold change vs veh, ZNF655 / RFU, FAHD1 / Fold change vs veh, FAHD1 / RFU, BDP1 / Fold change vs veh, BDP1 / RFU, LRRCC1 / Fold change vs veh, LRRCC1 / RFU, ARID1A / Fold change vs veh, ARID1A / RFU, ZNF146 / Fold change vs veh, ZNF146 / RFU, ZNF330 / Fold change vs veh, ZNF330 / RFU, GPN3 / Fold change vs veh, GPN3 / RFU, C9orf123 / Fold change vs veh, C9orf123 / RFU, N4BP2L2 / Fold change vs veh, N4BP2L2 / RFU, ARFIP1 / Fold change vs veh, ARFIP1 / RFU, FAM179B / Fold change vs veh, FAM179B / RFU, BCL10 / Fold change vs veh, BCL10 / RFU, UHRF1BP1L / Fold change vs veh, UHRF1BP1L / RFU, BET1 / Fold change vs veh, BET1 / RFU, CNOT2 / Fold change vs veh, CNOT2 / RFU, ZNF268 / Fold change vs veh, ZNF268 / Fold change vs veh, ZNF507 / RFU, DGCR2 / Fold change vs veh, DGCR2 / RFU, WDSUB1 / Fold change vs veh, WDSUB1 / Fold change vs veh, HSP90B1 /// MIR3652 / RFU, ADSS / Fold change vs veh, ADSS / RFU, GK / Fold change vs veh, GK / RFU, ZNF148 / Fold change vs veh, ZNF148 / RFU, TAF9 / Fold change vs veh, TAF9 / RFU, SLC1A5 / Fold change vs veh, SLC1A5 / RFU, SLMO2 / Fold change vs veh, SLMO2 / RFU, ABCC4 / Fold change vs veh, ABCC4 / RFU, LOC101060439 /// RAP1B / Fold change vs veh, LOC101060439 /// RAP1B / RFU, RFX7 / Fold change vs veh, RFX7 / RFU, GTPBP10 / Fold change vs veh, GTPBP10 / RFU, CNEP1R1 / Fold change vs veh, CNEP1R1 / RFU, BIVM-ERCC5 /// ERCC5 / Fold change vs veh, BIVM-ERCC5 /// ERCC5 / RFU, ILF3 / Fold change vs veh, ILF3 / RFU 11762660_at / Fold change /veh 11762660_at / RFU VCAN (11757783_s_at) / Fold change /veh VCAN (11757783_s_at) / RFU DDX43 (11728927_at) / Fold change /veh DDX43 (11728927_at) / RFU KRT8 (11758188_x_at) / Fold change /veh KRT8 (11758188_x_at) / RFU NKD1 (11759106_at) / Fold change /veh NKD1 (11759106_at) / RFU SRD5A1 (11742802_a_at) / Fold change /veh SRD5A1 (11742802_a_at) / RFU TPSAB1 /// TPSB2 (11721975_s_at) / Fold change /veh TPSAB1 /// TPSB2 (11721975_s_at) / RFU GSTM3 (11746129_a_at) / Fold change /veh GSTM3 (11746129_a_at) / RFU IL23R (11737362_x_at) / Fold change /veh IL23R (11737362_x_at) / RFU TMEM51 (11727254_a_at) / Fold change /veh TMEM51 (11727254_a_at) / RFU PIWIL2 (11732686_x_at) / Fold change /veh PIWIL2 (11732686_x_at) / RFU ORM1 (11744905_x_at) / Fold change /veh ORM1 (11744905_x_at) / RFU CCDC152 (11743942_at) / Fold change /veh CCDC152 (11743942_at) / RFU ECM1 (11717891_a_at) / Fold change /veh ECM1 (11717891_a_at) / RFU IL23R (11748794_a_at) / Fold change /veh IL23R (11748794_a_at) / RFU TNFAIP8L3 (11732012_x_at) / Fold change /veh TNFAIP8L3 (11732012_x_at) / RFU MBOAT4 (11741988_at) / Fold change /veh MBOAT4 (11741988_at) / RFU 11764193_at / Fold change /veh 11764193_at / RFU TMEM53 (11763286_at) / Fold change /veh TMEM53 (11763286_at) / RFU MAGEB2 (11727129_at) / Fold change /veh MAGEB2 (11727129_at) / RFU TMEM200A (11744735_a_at) / Fold change /veh TMEM200A (11744735_a_at) / RFU CCDC152 (11751479_a_at) / Fold change /veh CCDC152 (11751479_a_at) / RFU FAM211A (11726209_a_at) / Fold change /veh FAM211A (11726209_a_at) / RFU RGS16 (11746705_a_at) / Fold change /veh RGS16 (11746705_a_at) / RFU VCAN (11755009_s_at) / Fold change /veh VCAN (11755009_s_at) / RFU RHOB (11743442_s_at) / Fold change /veh RHOB (11743442_s_at) / RFU RGS16 (11720943_a_at) / Fold change /veh RGS16 (11720943_a_at) / RFU RGS16 (11720944_at) / Fold change /veh RGS16 (11720944_at) / RFU, VPS4B / Fold change vs veh, VPS4B / RFU, CREB1 / Fold change vs veh, CREB1 / RFU, DNAJC13 / Fold change vs veh, DNAJC13 / RFU, GNAQ / Fold change vs veh, GNAQ / RFU, CDK5R1 / Fold change vs veh, CDK5R1 / RFU, ZRANB3 / Fold change vs veh, ZRANB3 / RFU, CUL4A / Fold change vs veh, CUL4A / RFU, CCNY / Fold change vs veh, CCNY / RFU, UFL1 / Fold change vs veh, UFL1 / RFU, COG3 / Fold change vs veh, COG3 / RFU, DIAPH2 / Fold change vs veh, DIAPH2 / RFU, SKA2 / Fold change vs veh, SKA2 / RFU, AFF3 / Fold change vs veh, AFF3 / RFU, LMF1 / Fold change vs veh, LMF1 / RFU, IPO11 / Fold change vs veh, IPO11 / RFU, DFFB / Fold change vs veh, DFFB / RFU, FOXP1 / Fold change vs veh, FOXP1 / RFU, CARD8 / Fold change vs veh, CARD8 / RFU, STRN3 / Fold change vs veh, STRN3 / RFU, ADK / Fold change vs veh, ADK / RFU, RASSF2 / Fold change vs veh, RASSF2 / RFU, WIPF1 / Fold change vs veh, WIPF1 / RFU, LARP1B / Fold change vs veh, LARP1B / RFU, RASA1 / Fold change vs veh, RASA1 / RFU, RB1 / Fold change vs veh, RB1 / RFU, PPFIA1 / Fold change vs veh, PPFIA1 / RFU, MAT2A / Fold change vs veh, MAT2A / RFU, CCT5 / Fold change vs veh, CCT5 / RFU, WDR92 / Fold change vs veh, WDR92 / RFU, CUX1 / Fold change vs veh, CUX1 / RFU, TTC7A / Fold change vs veh, TTC7A / RFU, TMEM135 / Fold change vs veh, TMEM135 / RFU, DEPTOR / Fold change vs veh, DEPTOR / RFU, CPM / Fold change vs veh, CPM / RFU, DNAJB6 / Fold change vs veh, DNAJB6 / RFU, CACNA2D3 / Fold change vs veh, CACNA2D3 / RFU, DTX4 / Fold change vs veh, DTX4 / RFU, TFCP2 / Fold change vs veh, TFCP2 / RFU, GMCL1 /// GMCL1P1 / Fold change vs veh, GMCL1 /// GMCL1P1 / RFU, AEBP2 / Fold change vs veh, AEBP2 / RFU, SNHG1 /// SNORD22 /// SNORD25 /// SNORD26 /// SNORD27 /// SNORD28 /// SNORD29 /// SNORD31 / Fold change vs veh, SNHG1 /// SNORD22 /// SNORD25 /// SNORD26 /// SNORD27 /// SNORD28 /// SNORD29 /// SNORD31 / Fold change (Aza/veh), C12orf56 (ProbeSet 11735607_a_at) / Fold change (ACY-1035/veh), C12orf56 (ProbeSet 11735607_a_at) / Fold change (Aza/veh), FGFR1OP (ProbeSet 11751329_s_at) / Fold change (ACY-1035/veh), FGFR1OP (ProbeSet 11751329_s_at) / Fold change (Aza/veh), VPS36 (ProbeSet 11739960_a_at) / Fold change (ACY-1035/veh), VPS36 (ProbeSet 11739960_a_at) / RFU SYPL1 (11715823_x_at) / Fold change /veh SYPL1 (11715823_x_at) / RFU IGFBP7 (11715501_s_at) / Fold change /veh IGFBP7 (11715501_s_at) / RFU REEP3 (11722064_at) / Fold change /veh REEP3 (11722064_at) / RFU IGLL1 (11728026_x_at) / Fold change /veh IGLL1 (11728026_x_at): dose or concentration left out as unconfirmed
Settings: MV-4-11 cells, 48 hours

Nc1ncn([C@@H]2O[C@H](CO)[C@@H](O)[C@H]2O)c(=O)n1 [azacitidine]
Fold change /veh IGLL1 (11728026_x_at): 0.66
